Structures can show the parent of a compound that is named as a salt.
Key:
SCD1 = target: T1, SCD1 (Mus musculus, UniProt P13516); assay: SCD assay: release of tritiated water from desaturation of 9,10-3H-stearoyl CoA, mouse liver microsomes; format: biochemical; conditions: mouse liver microsomes as SCD source; 300 nM (9,10) 3H-stearoyl CoA; 25 minutes at rt; read-out: IC50 (nM), in vitro inhibition of SCD1
T1 construct: Mouse liver microsomes, prepared from mice fed a high-carbohydrate diet, were a source of the SCD; from tissue; host or cells: mouse liver microsomes (mice fed a high-carbohydrate diet)
T1 sequence (P13516 1-355): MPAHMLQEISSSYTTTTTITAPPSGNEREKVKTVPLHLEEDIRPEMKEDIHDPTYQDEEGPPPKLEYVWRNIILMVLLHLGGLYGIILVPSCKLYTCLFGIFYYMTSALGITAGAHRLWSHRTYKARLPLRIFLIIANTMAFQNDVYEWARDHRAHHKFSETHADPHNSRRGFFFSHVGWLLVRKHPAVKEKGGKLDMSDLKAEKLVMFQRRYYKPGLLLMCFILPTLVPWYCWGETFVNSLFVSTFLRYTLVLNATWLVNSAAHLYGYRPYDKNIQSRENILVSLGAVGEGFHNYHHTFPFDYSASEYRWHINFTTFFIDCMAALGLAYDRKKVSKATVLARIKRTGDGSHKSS
Excerpt: Stearoyl CoA desaturase activity was monitored by a modification of the acyl carrier protein assay described by B. R. Talamo and K. Bloch in Anal. Biochem. 1968, 29, 300-304. The SCD assay monitors the release of tritiated water from the desaturation of 9,10-^3H-stearoyl CoA.
Mouse liver microsomes, prepared from mice fed a high-carbohydrate diet, were a source of the SCD and cyt b5 and cyt b5 reductase, necessary accessory proteins for the coupled reaction. Reaction mixtures for compound titrations contained 50 mM Tris HCl pH 7.5, 100 mM NaCl, 0.165 mg/mL BSA, 2.4% DMSO, 1 mM NADH, 0.03% T-20, and 300 nM (9,10) ^3H-stearoyl CoA (Perkin-Elmer). Reactions were initiated upon the addition of 4 ug/mL SCD microsomes. Incubations were terminated after 25 minutes at rt with cold 6% TCA. After standing 10 minutes at 4° C., samples were centrifuged 15 minutes at 4000 rpm to pellet precipitated protein. Supernatants were added to microtiter plates containing suspensions of activated charcoal (Darco G-60, Fisher Scientific) and mixed by inversion. Plates were then centrifuged to separate ^3H—H2O product from charcoal-bound reactants. Supernatants were quantitated in a Perkin Elmer Topcount 384 after solubilization in ScintiSafe Plus 50% (Fisher Scientific).
Inhibition (%) of SCD activity by compounds was calculated according to the following formula: % Inhibition=100*[1−(CPMsample−CPMblank)/(CPMtotal−CPMblank)].

Structure (SMILES) | melting point | IC50 (SCD1)
Nc1conc1-c1ccc(OCc2ccc(F)cc2)cc1 [Example 2, 3-[4-(4-Fluoro-benzyloxy)-phenyl]-isoxazol-4-ylamine] | – | 612 nM
COc1ccc(COc2ccc(-c3nocc3N)cc2)cc1 [Example 4, 3-[4-(4-Methoxy-benzyloxy)-phenyl]-isoxazol-4-ylamine] | 92 to 98 °C | 104 nM
COC(=O)c1ccc(COc2ccc(-c3nocc3N)cc2)cc1 [Example 5, 4-[4-(4-Amino-isoxazol-3-yl)-phenoxymethyl]-benzoic acid methyl ester hydrochloride] | – | 152 nM
CS(=O)(=O)c1ccc(COc2ccc(-c3nocc3N)cc2)cc1 [Example 6, 3-[4-(4-Methanesulfonyl-benzyloxy)-phenyl]-isoxazol-4-ylamine] | – | 40 nM
CS(=O)(=O)c1ccc(NCc2ccc(-c3nocc3N)cc2)cc1 [Example 7, 3-{4-[(4-methanesulfonyl-phenylamino)-methyl]-phenyl}-isoxazol-4-ylamine hydrochloride] | – | 817 nM
CS(=O)(=O)c1ccc(COc2ccc(-c3nocc3N)cc2)c(Cl)c1 [Example 8, 3-[4-(2-Chloro-4-methanesulfonyl-benzyloxy)-phenyl]-isoxazol-4-ylamine] | – | 191 nM
CS(=O)(=O)c1ccc(CCc2ccc(-c3nocc3N)cc2)cc1 [Example 9, 3-{4-[2-(4-Methanesulfonyl-phenyl)-ethyl]-phenyl}-isoxazol-4-ylamine] | – | 280 nM
Nc1conc1-c1ccc(OCc2cccnc2)cc1 [Example 14, 3-[4-(Pyridin-3-ylmethoxy)-phenyl]-isoxazol-4-ylamine] | – | 2200 nM
Nc1conc1-c1ccc(OCC(=O)c2ccccc2)cc1 [Example 15, 2-[4-(4-Amino-isoxazol-3-yl)-phenoxy]-1-phenyl-ethanone hydrochloride] | – | 395 nM
N#Cc1ccc(COc2ccc(-c3nocc3N)cc2)cc1 [Example 17, 4-[4-(4-Amino-isoxazol-3-yl)-phenoxymethyl]-benzonitrile hydrochloride] | – | 603 nM
N#Cc1cccc(COc2ccc(-c3nocc3N)cc2)c1 [Example 18, 3-[4-(4-Amino-isoxazol-3-yl)-phenoxymethyl]-benzonitrile hydrochloride] | – | 315 nM
Nc1conc1-c1ccc(OCc2ccc(C(F)(F)F)cc2)cc1 [Example 19, 3-[4-(4-Trifluoromethyl-benzyloxy)-phenyl]-isoxazol-4-ylamine hydrochloride] | – | 391 nM
Nc1conc1-c1ccc(OCc2ccc(OC(F)(F)F)cc2)cc1 [Example 20, 3-[4-(4-Trifluoromethoxy-benzyloxy)-phenyl]-isoxazol-4-ylamine hydrochloride] | – | 135 nM
Nc1conc1-c1ccc(OCc2cc(F)cc(F)c2)cc1 [Example 21, 3-[4-(3,5-Difluoro-benzyloxy)-phenyl]-isoxazol-4-ylamine hydrochloride] | – | 257 nM
Nc1conc1-c1ccc(OCc2ccccc2Cl)cc1 [Example 22, 3-[4-(2-Chloro-benzyloxy)-phenyl]-isoxazol-4-ylamine hydrochloride] | – | 1740 nM
Cc1ccc(COc2ccc(-c3nocc3N)cc2)cc1C [Example 23, 3-[4-(3,4-Dimethyl-benzyloxy)-phenyl]-isoxazol-4-ylamine hydrochloride] | – | 148 nM
Nc1conc1-c1ccc(OCc2ccc(Cl)c(Cl)c2)cc1 [Example 26, 3-[4-(3,4-Dichloro-benzyloxy)-phenyl]-isoxazol-4-ylamine hydrochloride] | – | 162 nM
Cc1ccc(COc2ccc(-c3nocc3N)cc2)cc1 [Example 27, 3-[4-(4-Methyl-benzyloxy)-phenyl]-isoxazol-4-ylamine hydrochloride] | – | 196 nM
CC(C)c1ccc(COc2ccc(-c3nocc3N)cc2)cc1 [Example 29, 3-[4-(4-Isopropyl-benzyloxy)-phenyl]-isoxazol-4-ylamine] | – | 161 nM
CCS(=O)(=O)c1ccc(COc2ccc(-c3nocc3N)cc2)cc1 [Example 31, 3-[4-(4-Ethanesulfonyl-benzyloxy)-phenyl]-isoxazol-4-ylamine] | – | 65 nM
Nc1conc1-c1ccc(OCc2ccc3c(c2)C=CS3(=O)=O)cc1 [Example 33, 3-[4-(1,1-Dioxo-1H-1lambda*6*-benzo[b]thiophen-5-ylmethoxy)-phenyl]-isoxazol-4-ylamine] | – | 411 nM
Nc1conc1-c1ccc(OCc2ccc(SC(F)(F)F)cc2)cc1 [Example 36, 3-[4-(4-Trifluoromethylsulfanyl-benzyloxy)-phenyl]-isoxazol-4-ylamine hydrochloride] | – | 51 nM

The next lines start with the values.

melting point | IC50 (SCD1) | Structure (SMILES)
174 to 176 °C | – | Nc1conc1-c1ccc(OCc2ccc(Cl)cc2)cc1 (as salt: hydrochloride) [Example 25, 3-[4-(4-Chloro-benzyloxy)-phenyl]-isoxazol-4-ylamine hydrochloride]
– | 464 nM | Nc1conc1-c1ccc(OCc2ccccc2)cc1 [Example 3, 3-(4-Benzyloxy-phenyl)-isoxazol-4-ylamine]
– | 1930 nM | Nc1conc1-c1ccc(OCCc2ccccc2)cc1 [Example 10]
– | 372 nM | Nc1conc1-c1ccc(OCCCc2ccccc2)cc1 [Example 11, 3-[4-(3-Phenyl-propoxy)-phenyl]-isoxazol-4-ylamine]
– | 466 nM | CS(=O)(=O)c1ccc(COc2ccc(-c3nocc3N)nc2)cc1 [Example 12, 3-[5-(4-Methanesulfonyl-benzyloxy)-pyridin-2-yl]-isoxazol-4-ylamine]
– | 864 nM | Cc1onc(-c2ccc(OCc3ccc(S(C)(=O)=O)cc3)cc2)c1N [Example 13, 3-[4-(4-Methanesulfonyl-benzyloxy)-phenyl]-5-methyl-isoxazol-4-ylamine]
– | 264 nM | Nc1conc1-c1ccc(OCc2ccc([N+](=O)[O-])cc2)cc1 [Example 16, 3-[4-(4-Nitro-benzyloxy)-phenyl]-isoxazol-4-ylamine hydrochloride]
– | 1350 nM | Nc1conc1-c1ccc(OCc2cccc(OC(F)(F)F)c2)cc1 [Example 24, 3-[4-(3-Trifluoromethoxy-benzyloxy)-phenyl]-isoxazol-4-ylamine hydrochloride]
– | 246 nM | Nc1conc1-c1ccc(OCc2ccc(Cl)cc2)cc1 [Example 25, 3-[4-(4-Chloro-benzyloxy)-phenyl]-isoxazol-4-ylamine hydrochloride]
– | 126 nM | Nc1conc1-c1ccc(OCc2ccc(I)cc2)cc1 [Example 28, 3-[4-(4-Iodo-benzyloxy)-phenyl]-isoxazol-4-ylamine]
– | 259 nM | Nc1conc1-c1ccc(OCc2ccc3c(c2)CCS3(=O)=O)cc1 [Example 32, 3-[4-(1,1-Dioxo-2,3-dihydro-1H-1lambda*6*-benzo[b]thiophen-5-ylmethoxy)-phenyl]-isoxazol-4-ylamine]
– | 673 nM | Nc1conc1-c1ccc(OCc2ccc(S(=O)(=O)c3ccccc3)cc2)cc1 [Example 34, 3-[4-(4-Benzenesulfonyl-benzyloxy)-phenyl]-isoxazol-4-ylamine]
– | 99 nM | CSc1ccc(COc2ccc(-c3nocc3N)cc2)cc1 [Example 35, 3-[4-(4-Methylsulfanyl-benzyloxy)-phenyl]-isoxazol-4-ylamine hydrochloride]
